Earlier results as cited in patent publication US20110257197A1 (Nanjing Cavendish Bio-Engineering Technology Co., Ltd., priority 2008, published 2011).
Converted amounts (≈) assume the structure as drawn. “Also recorded” adds a separate entry of the source. Like-named read-outs stand apart in the source and are kept apart here.

How the values were obtained:
[1] = system: mice; settings: i.v.
[2] = system: rat; settings: i.v.
[3] = system: mice
[4] = in vivo
[5] = system: rats
[6] = system: mice; remark: listed apart in the source
[7] = system: red blood cell; settings: i.v.
[8] = in vivo; remark: listed apart in the source
[9] = system: rodent; settings: two-year studies
[10] = system: guinea pig; settings: indicates possibility of causing allergy
[11] = system: Aspergillus fungi; settings: in vitro
[12] = system: Scedosporium and Fusarium species; settings: in vitro
[13] = system: Candida species (including strains of Candida krusei, Candida glabrata, and Candida albicans resistant to fluconazole); settings: in vitro
[14] = listed as sulfobutyl ether β-cyclodextrin sodium

## CCO [ethanol]
[1]
  LD50: 1440 mg/kg
[2]
  LD50: ethanol, in rat, i.v. LD50 = 1973 mg/kg;

## CC(O)CO (stereo not shown) [propylene glycol]
[3]
  NOAEL of maternal toxicity in teratogenic sensitive period: 1600 mg/kg/day. Ethanol could cause
  NOAEL of teratogenic toxicity: 1600 mg/kg/day. Ethanol could cause
[4]
  long term fertility study: studies showed that no abnormity had
[2]
  LD50: i.v. LD50 ≧ 5000 mg/kg.
[5]
  NOAEL of maternal toxicity in teratogenic sensitive period: 1600 mg/kg/day. Ethanol could cause
  NOAEL of teratogenic toxicity: 1600 mg/kg/day. Ethanol could cause

## sulfobutyl ether β-cyclodextrin sodium [SBECD]
[6]
  dose at which the weight of mice was significantly decreased: 18 mg/kg/day or higher
[7]
  concentration of significant heamolysis: at 0.04 mg/ml.
[7]; [14]
  concentration at which mild hemolysis occurs: 20 µg/mL
  concentration of significant heamolysis: 40 µg/mL
[1]
  LD50: LD50 > 2000 mg/kg
[8]
  findings on repeated administration: vacuale formation in the urinary-tract epithelium; also recorded: activated macrophages in liver and lung
[9]
  carcinogenicity (pancreatic carcinoma): carcinogenic
[2]
  LD50: LD50 > 2000 mg/kg
[10]
  guinea pig maximization test (GPMT) result: positive

## C[C@@H](c1ncncc1F)[C@](O)(Cn1cncn1)c1ccc(F)cc1F [voriconazole]
pH 3
  solubility in water: 0.2 mg/mL (≈ 573 µM)
pH 7
  solubility in water: almost insoluble
[11]
  activity against all tested Aspergillus fungi: active
[12]
  activity against other pathogenic fungi such as Scedosporium and Fusarium species: in vitro activity
[13]
  activity against Candida species: active
